Data: patent US9732075B2, “Benzimidazole-proline derivatives” (IDORSIA PHARMACEUTICALS LTD, priority 2012, dated 2017)

Experiments:
human orexin-2 receptor = human orexin-2 receptor (Homo sapiens (Human), UniProt O43614); test: In vitro assay: intracellular calcium measurements (FLIPR), antagonistic activity; format: cell-based; details: CHO cells expressing human orexin-2 receptor, orexin-A agonist, geometric mean, read-out: IC50 Ox2
Method in brief: (§1)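 Dye-loaded CHO cells expressing either human orexin receptor are exposed to test antagonist for 120 min, then stimulated with orexin-A at 3 nM.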

human orexin-1 receptor = human orexin-1 receptor (Homo sapiens (Human), UniProt O43613); test: as above; format: cell-based; details: CHO cells expressing human orexin-1 receptor, orexin-A agonist, geometric mean, read-out: IC50 Ox1
human orexin-1 receptor, sequence (O43613 whole entry): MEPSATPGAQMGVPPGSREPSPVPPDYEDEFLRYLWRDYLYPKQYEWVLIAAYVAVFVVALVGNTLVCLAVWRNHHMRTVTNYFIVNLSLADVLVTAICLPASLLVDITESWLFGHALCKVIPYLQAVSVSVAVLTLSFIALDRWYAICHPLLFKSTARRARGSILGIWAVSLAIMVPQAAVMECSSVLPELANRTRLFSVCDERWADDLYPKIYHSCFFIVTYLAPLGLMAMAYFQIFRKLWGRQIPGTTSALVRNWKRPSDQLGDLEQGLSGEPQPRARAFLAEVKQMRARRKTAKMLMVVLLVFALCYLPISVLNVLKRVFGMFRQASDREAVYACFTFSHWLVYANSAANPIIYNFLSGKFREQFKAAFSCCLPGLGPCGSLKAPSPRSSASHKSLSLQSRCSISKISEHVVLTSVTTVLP
Method in brief: as §1

human orexin-2 receptor, sequence (O43614 whole entry): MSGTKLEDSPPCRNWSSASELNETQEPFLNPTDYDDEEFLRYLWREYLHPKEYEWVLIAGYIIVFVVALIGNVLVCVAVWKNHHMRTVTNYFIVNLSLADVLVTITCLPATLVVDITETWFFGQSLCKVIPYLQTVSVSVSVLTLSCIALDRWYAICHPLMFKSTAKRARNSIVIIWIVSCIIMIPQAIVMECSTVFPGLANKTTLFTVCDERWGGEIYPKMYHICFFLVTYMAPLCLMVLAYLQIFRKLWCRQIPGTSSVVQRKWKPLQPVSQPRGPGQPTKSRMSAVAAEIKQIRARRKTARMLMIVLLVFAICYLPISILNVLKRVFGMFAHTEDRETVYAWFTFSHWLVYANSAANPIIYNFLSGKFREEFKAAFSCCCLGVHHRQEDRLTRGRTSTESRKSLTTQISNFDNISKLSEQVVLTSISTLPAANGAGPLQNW

| Compound | IC50 (human orexin-2 receptor) [nM] | IC50 (human orexin-1 receptor) [nM] |
| --- | --- | --- |
| Cc1ccc(-c2ccc(C)cc2C(=O)N2CCC[C@@]2(C)c2nc3cc(C)c(C)cc3[nH]2)cc1 [Ex. 5.100] | 27 | 17 |
| COc1cccc(-c2ccccc2C(=O)N2CCC[C@@]2(C)c2nc3cc(C)c(C)cc3[nH]2)c1 [Ex. 5.101] | 54 | 59 |
| COc1ccc(-c2ccccc2C(=O)N2CCC[C@@]2(C)c2nc3cc(C)c(C)cc3[nH]2)cc1 [Ex. 5.102] | 82 | 34 |
| Cc1cc2nc([C@]3(C)CCCN3C(=O)c3ccccc3-c3ccccc3F)[nH]c2cc1C [Ex. 5.103] | 70 | 46 |
| Cc1cc2nc([C@]3(C)CCCN3C(=O)c3ccccc3-c3ccc(F)cc3)[nH]c2cc1C [Ex. 5.104] | 97 | 92 |
| Cc1cc2nc([C@]3(C)CCCN3C(=O)c3ccccc3-c3cccc(F)c3)[nH]c2cc1C [Ex. 5.105] | 28 | 24 |
| Cc1cccc(-c2ccccc2C(=O)N2CCC[C@@]2(C)c2nc3cc(C)c(C)cc3[nH]2)c1 [Ex. 5.106] | 37 | 25 |
| Cc1ccc(-c2ccccc2C(=O)N2CCC[C@@]2(C)c2nc3cc(C)c(C)cc3[nH]2)cc1 [Ex. 5.107] | 53 | 58 |
| Cc1ccc(-c2ccc(F)cc2C)c(C(=O)N2CCC[C@@]2(C)c2nc3c(C)c(C)ccc3[nH]2)c1 [Ex. 5.108] | 161 | 265 |
| Cc1ccc(-c2cccc(F)c2)c(C(=O)N2CCC[C@@]2(C)c2nc3c(C)c(C)ccc3[nH]2)c1 [Ex. 5.109] | 4 | 3 |
| COc1cccc(-c2ccc(C)cc2C(=O)N2CCC[C@@]2(C)c2nc3c(C)c(C)ccc3[nH]2)c1 [Ex. 5.110] | 14 | 13 |
| Cc1cccc(-c2ccc(C)cc2C(=O)N2CCC[C@@]2(C)c2nc3c(C)c(C)ccc3[nH]2)c1 [Ex. 5.111] | 7 | 5 |
| COc1ccc(-c2ccc(C)cc2C(=O)N2CCC[C@@]2(C)c2nc3c(C)c(C)ccc3[nH]2)cc1 [Ex. 5.112] | 16 | 12 |
| Cc1ccc(-c2ccc(C)cc2C(=O)N2CCC[C@@]2(C)c2nc3c(C)c(C)ccc3[nH]2)cc1 [Ex. 5.113] | 15 | 12 |
| Cc1ccc(-c2ccccc2F)c(C(=O)N2CCC[C@@]2(C)c2nc3c(C)c(C)ccc3[nH]2)c1 [Ex. 5.114] | 21 | 10 |
| Cc1ccc(-c2ccc(F)cc2)c(C(=O)N2CCC[C@@]2(C)c2nc3c(C)c(C)ccc3[nH]2)c1 [Ex. 5.115] | 18 | 22 |
| Cc1ccc2[nH]c([C@]3(C)CCCN3C(=O)c3ccccc3-c3cccc(F)c3)nc2c1C [Ex. 5.116] | 19 | 39 |
| COc1cccc(-c2ccccc2C(=O)N2CCC[C@@]2(C)c2nc3c(C)c(C)ccc3[nH]2)c1 [Ex. 5.117] | 38 | 57 |
| Cc1cccc(-c2ccccc2C(=O)N2CCC[C@@]2(C)c2nc3c(C)c(C)ccc3[nH]2)c1 [Ex. 5.118] | 35 | 25 |
| COc1ccc(-c2ccccc2C(=O)N2CCC[C@@]2(C)c2nc3c(C)c(C)ccc3[nH]2)cc1 [Ex. 5.119] | 29 | 30 |

| Compound | IC50 (human orexin-2 receptor) [nM] | IC50 (human orexin-1 receptor) [nM] |
| --- | --- | --- |
| Cc1ccc(-c2ccccc2C(=O)N2CCC[C@@]2(C)c2nc3c(C)c(C)ccc3[nH]2)cc1 [Ex. 5.120] | 26 | 48 |
| Cc1ccc2[nH]c([C@]3(C)CCCN3C(=O)c3ccccc3-c3ccccc3F)nc2c1C [Ex. 5.121] | 43 | 56 |
| Cc1ccc2[nH]c([C@]3(C)CCCN3C(=O)c3ccccc3-c3ccc(F)cc3)nc2c1C [Ex. 5.122] | 74 | 99 |
| C[C@@]1(c2nc3cc(F)c(Br)cc3[nH]2)CCCN1C(=O)c1c(F)cccc1-n1nccn1 [Ex. 5.123] | 304 | 146 |
| Cc1ccc(-n2nccn2)c(C(=O)N2CCC[C@@]2(C)c2nc3cc(F)c(Br)cc3[nH]2)c1F [Ex. 5.124] | 411 | 113 |
| COc1cc(C(=O)N2CCC[C@@]2(C)c2nc3cc(F)c(Br)cc3[nH]2)c(-n2nccn2)cc1OC [Ex. 5.125] | 126 | 84 |
| Cc1cc(C(=O)N2CCC[C@@]2(C)c2nc3cc(F)c(Br)cc3[nH]2)c(-n2nccn2)cc1C [Ex. 5.127] | 6 | 1 |
| Cc1ccc(-n2cccn2)c(C(=O)N2CCC[C@@]2(C)c2nc3cc(F)c(Br)cc3[nH]2)c1 [Ex. 5.128] | 219 | 20 |
| C[C@@]1(c2nc3cc(F)c(Br)cc3[nH]2)CCCN1C(=O)c1cc(Cl)ccc1-n1nccn1 [Ex. 5.129] | 62 | 20 |
| Cc1ccc(C(=O)N2CCC[C@@]2(C)c2nc3cc(F)c(Br)cc3[nH]2)c(-n2nccn2)c1 [Ex. 5.130] | 58 | 24 |
| Cc1ccc(-n2nccn2)c(C(=O)N2CCC[C@@]2(C)c2nc3cc(F)c(Br)cc3[nH]2)n1 [Ex. 5.131] | 178 | 15 |
| COc1ccc(-n2nccn2)c(C(=O)N2CCC[C@@]2(C)c2nc3cc(F)c(Br)cc3[nH]2)c1F [Ex. 5.132] | 615 | 54 |
| C[C@@]1(c2nc3cc(C(F)(F)F)c(Cl)cc3[nH]2)CCCN1C(=O)c1c(F)cccc1-n1nccn1 [Ex. 5.133] | 45 | 11 |
| Cc1ccc(-n2nccn2)c(C(=O)N2CCC[C@@]2(C)c2nc3cc(C(F)(F)F)c(Cl)cc3[nH]2)c1F [Ex. 5.134] | 20 | 8 |
| COc1cc(C(=O)N2CCC[C@@]2(C)c2nc3cc(C(F)(F)F)c(Cl)cc3[nH]2)c(-n2nccn2)cc1OC [Ex. 5.135] | 49 | 10 |
| C[C@@]1(c2nc3cc(C(F)(F)F)c(Cl)cc3[nH]2)CCCN1C(=O)c1cc(F)ccc1-n1nccn1 [Ex. 5.136] | 35 | 6 |
| Cc1ccc(-n2cccn2)c(C(=O)N2CCC[C@@]2(C)c2nc3cc(C(F)(F)F)c(Cl)cc3[nH]2)c1 [Ex. 5.138] | 10 | 2 |
| C[C@@]1(c2nc3cc(C(F)(F)F)c(Cl)cc3[nH]2)CCCN1C(=O)c1cc(Cl)ccc1-n1nccn1 [Ex. 5.139] | 21 | 2 |
| Cc1ccc(C(=O)N2CCC[C@@]2(C)c2nc3cc(C(F)(F)F)c(Cl)cc3[nH]2)c(-n2nccn2)c1 [Ex. 5.140] | 28 | 5 |
| C[C@@]1(c2nc3cc(C(F)(F)F)c(Cl)cc3[nH]2)CCCN1C(=O)c1ccccc1-n1cccn1 [Ex. 5.141] | 244 | 27 |

| Compound | IC50 (human orexin-2 receptor) [nM] | IC50 (human orexin-1 receptor) [nM] |
| --- | --- | --- |
| C[C@@]1(c2nc3cc(C(F)(F)F)c(Cl)cc3[nH]2)CCCN1C(=O)c1ccccc1-n1nccn1 [Ex. 5.142] | 24 | 8 |
| Cc1ccc(-n2cccn2)c(C(=O)N2CCC[C@@]2(C)c2nc3cc(C(F)(F)F)c(Cl)cc3[nH]2)n1 [Ex. 5.143] | 82 | 7 |
| C[C@@]1(c2nc3cc(C(F)(F)F)c(Cl)cc3[nH]2)CCCN1C(=O)c1cc(C(F)(F)F)ccc1-n1nccn1 [Ex. 5.144] | 210 | 20 |
| Cc1ccc(-n2nccn2)c(C(=O)N2CCC[C@@]2(C)c2nc3cc(C(F)(F)F)c(Cl)cc3[nH]2)n1 [Ex. 5.145] | 30 | 6 |
| COc1ccc(-n2nccn2)c(C(=O)N2CCC[C@@]2(C)c2nc3cc(C(F)(F)F)c(Cl)cc3[nH]2)c1F [Ex. 5.146] | 43 | 15 |
| C[C@@]1(c2nc3cc(C(F)(F)F)c(Cl)cc3[nH]2)CCCN1C(=O)c1cc(OC(F)(F)F)ccc1-n1nccn1 [Ex. 5.147] | 112 | 27 |
| COc1ccccc1-c1ccc(C)cc1C(=O)N1CCC[C@@]1(C)c1nc2cc(C(F)(F)F)c(Cl)cc2[nH]1 [Ex. 5.148] | 159 | 35 |
| COc1cccc(-c2ccc(C)cc2C(=O)N2CCC[C@@]2(C)c2nc3cc(C(F)(F)F)c(Cl)cc3[nH]2)c1 [Ex. 5.149] | 26 | 21 |
| COc1ccc(-c2ccc(C)cc2C(=O)N2CCC[C@@]2(C)c2nc3cc(C(F)(F)F)c(Cl)cc3[nH]2)cc1 [Ex. 5.150] | 49 | 37 |
| Cc1ccc(-c2ccccc2F)c(C(=O)N2CCC[C@@]2(C)c2nc3cc(C(F)(F)F)c(Cl)cc3[nH]2)c1 [Ex. 5.151] | 40 | 20 |
| Cc1ccc(-c2ccc(F)cc2)c(C(=O)N2CCC[C@@]2(C)c2nc3cc(C(F)(F)F)c(Cl)cc3[nH]2)c1 [Ex. 5.152] | 51 | 24 |
| Cc1ccc(-c2cccc(F)c2)c(C(=O)N2CCC[C@@]2(C)c2nc3cc(C(F)(F)F)c(Cl)cc3[nH]2)c1 [Ex. 5.153] | 35 | 22 |
| Cc1ccc(-c2ccc(C)cc2C(=O)N2CCC[C@@]2(C)c2nc3cc(C(F)(F)F)c(Cl)cc3[nH]2)cc1 [Ex. 5.154] | 61 | 59 |
| Cc1ccc(-c2cccc(C(F)(F)F)c2)c(C(=O)N2CCC[C@@]2(C)c2nc3cc(C(F)(F)F)c(Cl)cc3[nH]2)c1 [Ex. 5.155] | 249 | 134 |
| Cc1ccc(-c2ccc3c(c2)OCO3)c(C(=O)N2CCC[C@@]2(C)c2nc3cc(C(F)(F)F)c(Cl)cc3[nH]2)c1 [Ex. 5.156] | 54 | 38 |
| Cc1ccc(-c2ccc(C(F)(F)F)cc2)c(C(=O)N2CCC[C@@]2(C)c2nc3cc(C(F)(F)F)c(Cl)cc3[nH]2)c1 [Ex. 5.157] | 538 | 367 |
| Cc1ccc(-c2ccc(OC(F)(F)F)cc2)c(C(=O)N2CCC[C@@]2(C)c2nc3cc(C(F)(F)F)c(Cl)cc3[nH]2)c1 [Ex. 5.158] | 879 | 525 |
| Cc1ccc(-c2cccc(C#N)c2)c(C(=O)N2CCC[C@@]2(C)c2nc3cc(C(F)(F)F)c(Cl)cc3[nH]2)c1 [Ex. 5.159] | 37 | 23 |
